Laboratory results taken from ChEMBL document CHEMBL5385895, “Design, synthesis, biological evaluation of urea substituted 1,2,5-oxadiazole-3-carboximidamides as novel indoleamine 2,3-dioxygenase-1 (IDO1) inhibitors” (Eur J Med Chem, 2023).
Activity calls are given as the source filed them. The calls are words filed in the database; no cut-off is given here.

Tests used:
[1] = molecular target: T1, Indoleamine 2,3-dioxygenase 1 (Homo sapiens, UniProt P14902); experiment: Inhibition of human recombinant IDO1 assessed as reduction in N-formylkynurenine formation using L-tryptophan as substrate preincubated for 30 mins followed by substrate addition and measured after 20 mins by SpectraMax microplate reader analysis
[2] = molecular target: Tryptophan 2,3-dioxygenase (Homo sapiens) (UniProt P48775); experiment: Inhibition of human recombinant TDO assessed as reduction in N-formylkynurenine formation using L-tryptophan as substrate at 1 uM preincubated for 30 mins followed by substrate addition and measured after 20 mins by SpectraMax microplate reader analysis; details: time 50.0 min
[3] = molecular target: T2, Indoleamine 2,3-dioxygenase 2 (Homo sapiens) (UniProt Q6ZQW0); experiment: Inhibition of human recombinant IDO2 assessed as reduction in N-formylkynurenine formation using L-tryptophan as substrate at 1 uM preincubated for 30 mins followed by substrate addition and measured after 20 mins by SpectraMax microplate reader analysis; details: time 50.0 min
T2 sequence (whole entry): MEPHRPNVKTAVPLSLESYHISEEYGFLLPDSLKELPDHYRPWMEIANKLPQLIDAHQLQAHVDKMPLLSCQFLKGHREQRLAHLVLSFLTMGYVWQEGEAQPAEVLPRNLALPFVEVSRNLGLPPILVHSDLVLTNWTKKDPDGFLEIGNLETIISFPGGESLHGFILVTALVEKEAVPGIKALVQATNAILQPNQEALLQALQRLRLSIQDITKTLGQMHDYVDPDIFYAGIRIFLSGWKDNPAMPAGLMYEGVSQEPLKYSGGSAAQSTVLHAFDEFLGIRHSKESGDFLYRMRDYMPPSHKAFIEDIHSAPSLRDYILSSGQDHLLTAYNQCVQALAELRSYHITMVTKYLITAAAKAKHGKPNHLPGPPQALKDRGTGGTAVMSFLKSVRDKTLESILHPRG

[4] = molecular target: T1, Indoleamine 2,3-dioxygenase 1; experiment: Inhibition of IDO1 in IFN-gamma-induced human HeLa cells assessed as reduction in N-formylkynurenine formation using L-tryptophan as substrate preincubated for 24 hrs followed by substrate addition and measured after 30 mins by SpectraMax microplate reader analysis; assay type: cell-based
[5] = Plasma clearance in Sprague-Dawley rat at 5 mg/kg, iv by LC-MS/MS analysis; assay type: ADME, organism-based
[6] = Half life in Sprague-Dawley rat at 25 mg/kg, po by LC-MS/MS analysis; assay type: ADME, organism-based; details: in vivo
[7] = AUC (0 to infinity) in Sprague-Dawley rat at 25 mg/kg, po by LC-MS/MS analysis; assay type: ADME, organism-based; set-up: dose 25 mg/kg, route po; details: in vivo
[8] = AUC (0 to t) in Sprague-Dawley rat at 25 mg/kg, po by LC-MS/MS analysis; assay type: ADME, organism-based; set-up: dose 25 mg/kg, route po; details: in vivo
[9] = AUC (0 to infinity) in Sprague-Dawley rat at 5 mg/kg, iv by LC-MS/MS analysis; assay type: ADME, organism-based; set-up: dose 5 mg/kg, route iv; details: in vivo
[10] = Tmax in Sprague-Dawley rat at 25 mg/kg, po by LC-MS/MS analysis; assay type: ADME, organism-based; details: in vivo
[11] = Apparent permeability of the compound across basolateral to apical side in dog MDCKII cells measured for 2 hrs by LC-MS/MS analysis; assay type: ADME, cell-based, Canis lupus familiaris, MDCK-II; details: MDCK
[12] = Apparent permeability of the compound across apical to basolateral side in dog MDCK-II cells measured for 2 hrs by LC-MS/MS analysis; assay type: ADME, cell-based, Canis lupus familiaris
[13] = Oral bioavailability in Sprague-Dawley rat at 25 mg/kg by LC-MS/MS analysis; assay type: ADME, organism-based; details: in vivo
[14] = Cmax in Sprague-Dawley rat at 5 mg/kg, iv by LC-MS/MS analysis; assay type: ADME, organism-based; set-up: dose 5 mg/kg, route iv; details: in vivo
[15] = AUC (0 to t) in Sprague-Dawley rat at 5 mg/kg, iv by LC-MS/MS analysis; assay type: ADME, organism-based; set-up: dose 5 mg/kg, route iv; details: in vivo
[16] = Tmax in Sprague-Dawley rat at 5 mg/kg, iv by LC-MS/MS analysis; assay type: ADME, organism-based; details: in vivo
[17] = Half life in Sprague-Dawley rat at 5 mg/kg, iv by LC-MS/MS analysis; assay type: ADME, organism-based; details: in vivo
[18] = Volume of distribution in Sprague-Dawley rat at 5 mg/kg, iv by LC-MS/MS analysis; assay type: ADME, organism-based; details: in vivo
HCT-116 = experiment: cells; details: Homo sapiens, HCT-116, 24 h
CT26 = experiment: cells; details: Mus musculus, CT26, 24 h
cells = details: Mus musculus, Lung cancer cell line, 24 h
HeLa = experiment: cells; details: Homo sapiens, 24 h
[19] = Anti-tumor efficacy against mouse LLC cells implanted in C57BL/6 mouse assessed as tumor growth inhibition at 100 mg/kg, po bid treated for 21 days relative to control; assay type: functional; details: Lewis lung carcinoma, 504 h, time 21 day, read-out: TGI

Sequence of Tryptophan 2,3-dioxygenase (Homo sapiens) (P48775 whole entry, looked up): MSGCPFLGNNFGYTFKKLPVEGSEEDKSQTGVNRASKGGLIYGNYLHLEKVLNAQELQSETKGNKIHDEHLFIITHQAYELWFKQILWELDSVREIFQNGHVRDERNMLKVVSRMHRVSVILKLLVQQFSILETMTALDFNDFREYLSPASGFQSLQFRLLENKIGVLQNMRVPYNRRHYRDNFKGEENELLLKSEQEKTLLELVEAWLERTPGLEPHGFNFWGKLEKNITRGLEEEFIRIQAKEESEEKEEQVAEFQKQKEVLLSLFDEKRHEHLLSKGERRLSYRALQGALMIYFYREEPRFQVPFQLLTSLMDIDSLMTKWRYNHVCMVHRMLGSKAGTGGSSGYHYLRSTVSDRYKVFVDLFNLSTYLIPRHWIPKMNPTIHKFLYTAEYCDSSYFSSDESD
T1 sequence (P14902 whole entry): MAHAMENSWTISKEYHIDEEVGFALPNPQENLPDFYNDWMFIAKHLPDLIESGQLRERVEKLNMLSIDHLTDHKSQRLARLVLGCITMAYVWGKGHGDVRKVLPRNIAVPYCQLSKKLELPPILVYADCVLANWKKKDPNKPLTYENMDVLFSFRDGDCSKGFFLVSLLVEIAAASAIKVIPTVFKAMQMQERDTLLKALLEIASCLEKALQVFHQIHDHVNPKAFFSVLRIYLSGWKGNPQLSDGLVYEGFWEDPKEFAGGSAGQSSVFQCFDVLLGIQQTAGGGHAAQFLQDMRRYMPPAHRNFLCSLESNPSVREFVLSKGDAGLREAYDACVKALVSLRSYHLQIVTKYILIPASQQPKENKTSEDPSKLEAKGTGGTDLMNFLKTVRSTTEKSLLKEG

| Compound | IC50 [1] [nM] | inhibition [2] | inhibition [3] | IC50 [4] [nM] | also measured |
| --- | --- | --- | --- | --- | --- |
| O=C(NCCO)Nc1nonc1/C(=N/O)Nc1ccc(F)c(Br)c1 | > 1000 | inactive | inactive |  |  |
| O=C(Nc1nonc1/C(=N/O)Nc1ccc(F)c(Br)c1)NC1CCCC1 | 314 | inactive | inactive |  |  |
| NCCCCNC(=O)Nc1nonc1/C(=N/O)Nc1ccc(F)c(Br)c1 | > 1000 | inactive | inactive |  |  |
| NS(=O)(=O)NCCNc1nonc1C(=NO)Nc1ccc(F)c(Br)c1 [EPACADOSTAT] |  |  |  |  | clearance [5]: 102 mL/min/kg; half-life [6]: 133 min; AUC(0-inf) [7]: 530 ng·h/mL; AUC(0-t) [8]: 472 ng·h/mL; AUC(0-inf) [9]: 856 ng·h/mL; Tmax [10]: 18.6 min; Papp B→A at 2 h [11]: 7.36 ×10⁻⁶ cm/s; Papp A→B at 2 h [12]: 3.12 ×10⁻⁶ cm/s; bioavailability [13]: 12.4%; Cmax [14]: 2430 ng/mL; AUC(0-t) [15]: 836 ng·h/mL; Tmax [16]: 1.98 min; half-life [17]: 38.4 min; Vd [18]: 5.73 L/kg |
| CN(C)CCNC(=O)Nc1nonc1/C(=N/O)Nc1ccc(F)c(Br)c1 | > 1000 | inactive | inactive |  |  |
| NCCCNC(=O)Nc1nonc1/C(=N/O)Nc1ccc(F)c(Br)c1 | > 1000 | inactive | inactive |  |  |
| COCCCNC(=O)Nc1nonc1/C(=N/O)Nc1ccc(F)c(Br)c1 | > 1000 | inactive | inactive |  |  |
| NS(=O)(=O)NCCNc1nonc1/C(=N/O)Nc1ccc(F)c(Br)c1 [EPACADOSTAT] |  | inactive | inactive |  | IC50 (HCT-116): 36.3 µM; IC50 (CT26): 64.6 µM; IC50 (cells): > 50 µM; inhibition in vivo at 100 mg/kg [19]: 38.8%; IC50 (HeLa): 59.8 µM |
| O=C(Nc1nonc1/C(=N/O)Nc1ccc(F)c(Br)c1)N1CCC(O)C1 (stereo not given) | > 1000 | inactive | inactive |  |  |
| O=C(Nc1nonc1/C(=N/O)Nc1ccc(F)c(Br)c1)N1CCCC1 | > 1000 | inactive | inactive |  |  |
| O=C(NCC1CCCCC1)Nc1nonc1/C(=N/O)Nc1ccc(F)c(Br)c1 | 847 | inactive | inactive |  |  |
| CN(C)C(=O)Nc1nonc1/C(=N/O)Nc1ccc(F)c(Br)c1 | 347 | inactive | inactive |  |  |
| COc1ccc(NC(=O)Nc2nonc2/C(=N/O)Nc2ccc(F)c(Br)c2)cc1OC | 331 | inactive | inactive |  |  |
| NCCNC(=O)Nc1nonc1/C(=N/O)Nc1ccc(F)c(Br)c1 | > 1000 | inactive | inactive |  |  |
| CN1CCN(C(=O)Nc2nonc2/C(=N/O)Nc2ccc(F)c(Br)c2)CC1 | 612 | inactive | inactive |  |  |
| O=C(Nc1nonc1/C(=N/O)Nc1ccc(F)c(Br)c1)NC1CCCCC1 | 544 | inactive | inactive |  |  |
| O=C(Nc1nonc1/C(=N/O)Nc1ccc(F)c(Br)c1)N1CCCCC1 | > 1000 | inactive | inactive |  |  |
| O=C(Nc1nonc1/C(=N/O)Nc1ccc(F)c(Br)c1)N1CCC1 | 632 | inactive | inactive |  |  |

Further lines, with some results ahead:

| IC50 [1] [nM] | inhibition [2] | inhibition [3] | IC50 [4] [nM] | Compound | also measured |
| --- | --- | --- | --- | --- | --- |
| 166 | inactive | inactive | 31.7 | O=C(Nc1nonc1/C(=N/O)Nc1ccc(F)c(Br)c1)NC1CCC1 |  |
| 82.6 | inactive | inactive | 58.2 | CC(C)NC(=O)Nc1nonc1/C(=N/O)Nc1ccc(F)c(Br)c1 |  |
| 222 | inactive | inactive | 92.3 | CCCNC(=O)Nc1nonc1/C(=N/O)Nc1ccc(F)c(Br)c1 |  |
| 148 | inactive | inactive | 43.7 | COc1ccc(NC(=O)Nc2nonc2/C(=N/O)Nc2ccc(F)c(Br)c2)cc1 |  |
| 197 | inactive | inactive | 49.5 | O=C(Nc1ccccc1)Nc1nonc1/C(=N/O)Nc1ccc(F)c(Br)c1 |  |
| 77 | inactive | inactive | 30.2 | O=C(NCC1CC1)Nc1nonc1/C(=N/O)Nc1ccc(F)c(Br)c1 | IC50 (HCT-116): 55.1 µM; IC50 (CT26): > 80 µM; IC50 (cells): > 50 µM; IC50 (HeLa): 54.3 µM |
| 208 | inactive | inactive | 51.7 | O=C(Nc1ccc(F)cc1)Nc1nonc1/C(=N/O)Nc1ccc(F)c(Br)c1 |  |
| 118 | inactive | inactive | 44.6 | CNC(=O)Nc1nonc1/C(=N/O)Nc1ccc(F)c(Br)c1 |  |
| 224 | inactive | inactive | 68.7 | O=C(Nc1ccc(Br)cc1)Nc1nonc1/C(=N/O)Nc1ccc(F)c(Br)c1 |  |
| 109 | inactive | inactive | 41.1 | O=C(NCC1CCC1)Nc1nonc1/C(=N/O)Nc1ccc(F)c(Br)c1 |  |
| 298 | inactive | inactive |  | COc1ccccc1NC(=O)Nc1nonc1/C(=N/O)Nc1ccc(F)c(Br)c1 |  |
| 311 | inactive | inactive |  | O=C(Nc1ccc(Cl)cc1)Nc1nonc1/C(=N/O)Nc1ccc(F)c(Br)c1 |  |
| 183 | inactive | inactive | 111 | COc1cccc(NC(=O)Nc2nonc2/C(=N/O)Nc2ccc(F)c(Br)c2)c1 |  |
| 159 | inactive | inactive | 103 | CCCCNC(=O)Nc1nonc1/C(=N/O)Nc1ccc(F)c(Br)c1 |  |
| 79.3 | inactive | inactive | 36.5 | O=C(Nc1nonc1/C(=N/O)Nc1ccc(F)c(Br)c1)NC1CC1 |  |
| 96.3 | inactive | inactive | 41.7 | CC(C)CNC(=O)Nc1nonc1/C(=N/O)Nc1ccc(F)c(Br)c1 |  |
